According to patent US20080249140A1, “Quaternary 3 -Amido, N-Methylpyridinium Salts as Anti-Inflammatory Agents” (priority 2005, published 2008):

Assays:
rats = conditions: comparable to nicotinamide, lower than diethylamine; cited from earlier work
[1] = system: reddening of the skin upon UV-irradiation; experiment: UV-erythema test (anti-inflammation) with a trial person; type: in vivo; conditions: for Readings of reddening intensities: 15±1 mg gel applied to irradiated skin, lower arm, UV C 150 seconds
Experimental: The NMN diclofenac salt prepared according to Example 1 was tested in experiments with a trial person in an […] according to Hiramatsu Y et al., Arzneimittel-forschung 1990, vol. 40 (11), 1117, and Wilhelm G, Schweiz. Med. Wochenschrift 1949, vol. 79, 577. The criterion of efficacy was the inhibition of the reddening of the skin upon UV-irradiation during the time of observation.
UV-Erythema Test (Anti-Inflammation):
• Lamp used: UV C lamp (Sylvania, Hg low pressure), 9 W • Irradiated area: circular, […] • Distance from lamp: 10 cm • Time of irradiation: 150 seconds • Site: lower arm, shaven, proximal side • Amount of gel applied to irradiated surface: 15±1 mg 3.5 to 5 minutes after end of irradiation
Readings of reddening intensities at given time intervals (arbitrary units): […]

| SMILES | Toxicity (rats) | Readings of reddening intensities ([1]; 40 minutes after start of irradiation) [arbitrary units] | Readings of reddening intensities ([1]; 60 minutes after start of irradiation) [arbitrary units] | Readings of reddening intensities ([1]; 90 minutes after start of irradiation) [arbitrary units] | Readings of reddening intensities ([1]; 120 minutes after start of irradiation) [arbitrary units] | Readings of reddening intensities ([1]; 180 minutes after start of irradiation) [arbitrary units] | Activity in UV-erythema test compared with Voltaren-Emulgel ([1]; comparison with Voltaren-Emulgel (diethylammonium salt of diclofenac)) |
| --- | --- | --- | --- | --- | --- | --- | --- |
| C[n+]1cccc(C(N)=O)c1 [NMN, N(1)-methylnicotinamide] | low toxicity | – | – | – | – | – | – |
| C[n+]1cccc(C(N)=O)c1.O=C([O-])Cc1ccccc1Nc1c(Cl)cccc1Cl [NMN-Diclofenac, NMN-Salt of Diclofenac] | – | 1 | 0.5 | 0 | 0.5 | 0.5 | superior activity |
